The source of these data is ChEMBL document CHEMBL2203043, “Carbonic anhydrase inhibitors. Regioselective synthesis of novel series 1-substituted 1,4-dihydro-4-oxo-3-pyridinesulfonamides and their inhibition of the human cytosolic isozymes I and II and transmembrane cancer-associated isozymes IX and XII” (Eur J Med Chem, 2012).

Structures are written as SMILES.

The species named for one assay is Homo sapiens. Nature of the assay: Selectivity ratio of Ki for human CA2 to Ki for human CA9.
As for `CC(=O)Nc1nnc(S(N)(=O)=O)s1`, the Ratio Ki was found to be 0.33. Still for that read-out and setting: next, `NS(=O)(=O)c1ccc(S(=O)(=O)Nc2cccc3c(Cl)c[nH]c23)cc1`: 0.33; `CCOc1ccc2nc(S(N)(=O)=O)sc2c1`: 0.33; `NS(=O)(=O)c1cc(Cl)c(Cl)c(S(N)(=O)=O)c1`: 0.33.

Take `CC(=O)/N=c1/sc(S(N)(=O)=O)nn1C`: the Ratio Ki stood at 0.33.

Another assay concerns the target Carbonic anhydrase 9 (Homo sapiens, UniProt Q16790). Nature of the assay: Inhibition of human CA9 after 15 mins by stopped-flow CO2 hydrase assay.
The compound `N#CCCCn1ccc(=O)c(S(N)(=O)=O)c1` came in with a Ki of 67.2 nM. That is a double-digit nanomolar value. On the same count and under the same terms, the same measure for `Cc1ccc(-n2c(Cn3ccc(=O)c(S(N)(=O)=O)c3)nc3ccccc3c2=O)cc1`: 70.3 nM; for `NS(=O)(=O)c1cn(CC(=O)NS(=O)(=O)c2ccc(Cl)cc2)ccc1=O`: 38.6 nM; for `Cc1cccc(C)c1NC(=O)Cn1ccc(=O)c(S(N)(=O)=O)c1`: 17.3 nM. As for `Nc1nc(Cn2ccc(=O)c(S(N)(=O)=O)c2)nc(N2CCOCC2)n1`, the affinity corresponds to a Ki of 72.5 nM. As to `NS(=O)(=O)c1cn(CC2CC2)ccc1=O`, the Ki stood at 85.1 nM. Still for that read-out and setting: the same measure for `Cc1noc(C)c1Cn1ccc(=O)c(S(N)(=O)=O)c1`: 23.1 nM; for `NS(=O)(=O)c1cn(CC(=O)NNC(=O)c2ccco2)ccc1=O`: 56.1 nM; for `CC1=NN(c2nc(N)nc(Cn3ccc(=O)c(S(N)(=O)=O)c3)n2)CC1`: 77.8 nM. As for `NS(=O)(=O)c1cn(CC(=O)NS(=O)(=O)c2ccc([N+](=O)[O-])cc2)ccc1=O`, the Ki was 65.2 nM. Still for that read-out and setting: next, `CN(C)c1nc(N)nc(Cn2ccc(=O)c(S(N)(=O)=O)c2)n1`: 16.5 nM.

The compound `CCOC(=O)Cn1ccc(=O)c(S(N)(=O)=O)c1` had a Ki of 60.1 nM. Still for that read-out and setting: the same measure for `NS(=O)(=O)c1cn(CC(=O)Nc2ccc(Cl)c([N+](=O)[O-])c2)ccc1=O`: 60.6 nM; for `Cc1ccc(S(=O)(=O)NNC(=O)Cn2ccc(=O)c(S(N)(=O)=O)c2)cc1`: 11.8 nM; for `NS(=O)(=O)c1cn(CCO)ccc1=O`: 54.7 nM. Still for that read-out and setting: next, `COC(=O)c1ccccc1NC(=O)Cn1ccc(=O)c(S(N)(=O)=O)c1`: 86.4 nM; `CC1=NN(c2nc(N)nc(Cn3ccc(=O)c(S(N)(=O)=O)c3)n2)C(C)(C)C1`: 66.3 nM. The same measure, in the same setting: next, `NS(=O)(=O)c1cn(Cc2nc3ccccc3c(=O)n2-c2ccccc2)ccc1=O`: 76.2 nM.

`NS(=O)(=O)c1cn(Cc2nc3ccccc3c(=O)n2-c2ccc(Cl)cc2)ccc1=O` came in with an inhibitory constant (Ki) of 71.2 nM. In turn, `NS(=O)(=O)c1cn(CC(=O)Nc2ccc(Cl)cc2)ccc1=O` showed an inhibition constant Ki of 93.4 nM. The Ki values of the last two compounds are within 1.5-fold of each other. On the same count and under the same terms, the same measure for `CCN(c1ccccc1)c1nc(N)nc(Cn2ccc(=O)c(S(N)(=O)=O)c2)n1`: 50.1 nM; for `NS(=O)(=O)c1cn(CC(=O)NS(=O)(=O)c2ccccc2Cl)ccc1=O`: 29.7 nM. Take `NS(=O)(=O)c1cn(CC(=O)Nc2cccc([N+](=O)[O-])c2)ccc1=O`: the Ki was found to be 33.4 nM.

The term Ki denotes a dissociation constant, usually derived from enzyme kinetics or from competition with a known ligand. Low values mean higher affinity, high ones lower affinity.
